# Data reported in US20250375436A1, “SERDEXMETHYLPHENIDATE FOR TREATMENT OF IDIOPATHIC HYPERSOMNIA” (ZEVRA THERAPEUTICS, INC., priority 2024, published 2025).
# Assay: Plasma PK of d-MPH after single oral dose administrations of 240, 360 and 480 mg SDX Cl
compound,measurement,setting,value
"COC(=O)[C@H](c1ccccc1)[C@H]1CCCCN1C(=O)OC[n+]1cccc(C(=O)N[C@@H](CO)C(=O)O)c1.[Cl-] [SDX Cl, 3-[[[(1S)-1-carboxy-2-hydroxyethyl]amino]carbonyl]-1-[[[[(2R)-2-[(1R)-2-methoxy-2-oxo-1-phenylethyl]-1-piperidinyl]carbonyl]oxy]methyl]pyridinium chloride]",CL/F,"single oral dose 240 mg SDX Cl, N = 14",384 L/h
same,CL/F,"single oral dose 360 mg SDX Cl, N = 10",387 L/h
same,CL/F,"single oral dose 480 mg SDX Cl, N = 7",297 L/h
